From PMC9925730, “Controlled sequential in situ self-assembly and disassembly of a fluorogenic cisplatin prodrug for cancer theranostics” (Nature Communications, 2023)
“And” between values parts separate entries of the source, which are not always exact repeats. Equal entries are not always repeated.

Experiments:
HeLa cells = test: NIR FL and PA bimodality imaging of cell pellets; format: cell-based, human; conditions: for normalized FL of cell pellets (Fig. 3c): 30 min
ALP = test: Specificity of P-CyPt towards ALP (Trypsin, MMP-2, GGT, CTB, Caspase-3, ALP, ALP + Na3VO4); format: biochemical; conditions: for Normalized FL intensity at 710 nm, single replicate: individual replicates; for Normalized FL intensity at 710 nm, single replicate / Normalized FL intensity at 710 nm, mean: Supplementary Fig. 7b
[1] = NIR FL, PA and absorption signals of Pt^IVNPs in solution in response to GSH; conditions: P-CyPt 10 μM
Method: To monitor the NIR FL and PA imaging signals of P-CyPt in response to ALP, P-CyPt (10 μM) in Tris buffer (1 mL) was incubated with ALP (100 U/L) at 37 °C for 0, 5, 10, 15, 20, and 30 min. To monitor the NIR FL and PA imaging signals of Pt^IVNPs in response to GSH, P-CyPt (10 μM) in Tris buffer (1 mL) was first incubated with ALP (100 U/L) at 37 °C for 30 min and then incubated with 10 mM GSH at 37 °C for another 10, 20, 30, 40, 50, and 60 min. The NIR FL spectra of these solutions at each time point were acquired on a HORIBA Jobin Yvon Fluoromax-4 fluorescence spectrometer, with excitation at 680 nm. For PA imaging, the incubation solutions at each time point were loaded into a fine bore polythene tube ([…], 1.27 mm OD). The tubes were then sealed and immersed in water. The PA images at both 700 and 750 nm were acquired on the Vevo 2100 LAZR system (FUJIFILM VisualSonics).

[2] = HeLa, P-CyPt 10 μM 30 min then blank medium 3 h (Group II vs I)
[3] = ALP 30 min then GSH 10 mM 10 min (time 40)
[4] = ALP 30 min then GSH 10 mM 20 min (time 50)
[5] = ALP 30 min then GSH 10 mM 30 min (time 60)
[6] = ALP 30 min then GSH 10 mM 40 min (time 70)
[7] = ALP 30 min then GSH 10 mM 50 min (time 80)
[8] = ALP 30 min then GSH 10 mM 60 min (time 90)

For `CC1(C)C(/C=C/C2=C3Oc4cc(OP(=O)(O)O)c(Cl)cc4C=C3CCC2)=[N+](CCCNC(=O)[C@@H](Cc2ccccc2)NC(=O)[C@@H](Cc2ccccc2)NC(=O)CCC(=O)[O][Pt]([NH2])([NH2])([OH])([Cl])[Cl])c2ccccc21` [P-CyPt], the “normalized FL of cell pellets (Fig. 3c)” value (HeLa cells; Group I: HeLa, P-CyPt 10 μM) was 0.6736, the “normalized FL of cell pellets (Fig. 3c)” value (HeLa cells; Group II: HeLa, P-CyPt 10 μM, then blank medium 3 h) was 1 and the “normalized FL of cell pellets (Fig. 3c)” value (HeLa cells; Group III: HeLa preincubated with Na3VO4 (10 mM, 20 min), then P-CyPt 10 μM) was 0.2415. The “decrease of PA signal at 750 nm in cell pellets” value (HeLa cells; [2]) was ~ 3.5 fold, the “increase of NIR FL in cell pellets” value (HeLa cells; [2]) was ~ 1.5 fold and the “Normalized FL intensity at 710 nm, single replicate” value (ALP; Enzyme type: ALP+Na3VO4) was 1.0416 and 1.0656 and 1.1392. The “Normalized FL intensity at 710 nm, mean” value (ALP; Enzyme type: ALP+Na3VO4, mean of 3 replicates) was 1.082, the “Normalized FL intensity at 710 nm, single replicate” value (ALP; Enzyme type: ALP+PBS) was 1.0305 and 1.3734 and 1.3861 and the “Normalized FL intensity at 710 nm, mean” value (ALP; Enzyme type: ALP+PBS, mean of 3 replicates) was 1.263. The “Normalized FL intensity at 710 nm, single replicate” value (ALP; Enzyme type: ALP) was 7.7619 and 9.0065 and 9.1858, the “Normalized FL intensity at 710 nm, mean” value (ALP; Enzyme type: ALP, mean of 3 replicates) was 8.651 and the “Normalized FL intensity at 710 nm, single replicate” value (ALP; Enzyme type: CTB) was 0.9991 and 1.017 and 1.1059. The “Normalized FL intensity at 710 nm, mean” value (ALP; Enzyme type: CTB, mean of 3 replicates) was 1.041, the “Normalized FL intensity at 710 nm, single replicate” value (ALP; Enzyme type: GGT) was 0.8869 and 1.0719 and 1.0726 and the “Normalized FL intensity at 710 nm, mean” value (ALP; Enzyme type: GGT, mean of 3 replicates) was 1.010. For the same compound, the “Normalized FL intensity at 710 nm, single replicate” value (ALP; Enzyme type: MMP-2) was 0.9603 and 0.9824 and 1.1444, the “Normalized FL intensity at 710 nm, mean” value (ALP; Enzyme type: MMP-2, mean of 3 replicates) was 1.029 and the “Normalized FL intensity at 710 nm, single replicate” value (ALP; Enzyme type: Tris (buffer only)) was 0.9358 and 0.9007 and 1.1635. The “Normalized FL intensity at 710 nm, mean” value (ALP; Enzyme type: Tris (buffer only), mean of 3 replicates) was 1.000, the “Normalized FL intensity at 710 nm, single replicate” value (ALP; Enzyme type: Trypsin) was 0.935 and 0.9815 and 1.0282 and the “Normalized FL intensity at 710 nm, mean” value (ALP; Enzyme type: Trypsin, mean of 3 replicates) was 0.982. The “NIR fluorescence signal of P-CyPt after incubation with enzyme (Supplementary Fig. 7, enzyme types), individual replicates” value (ALP; enzyme: Casepase-3, individual replicate values (n=3)) was 1.0789 and 1.0855 and 1.1465, the “NIR fluorescence signal of P-CyPt after incubation with enzyme (Supplementary Fig. 7, enzyme types), mean” value (ALP; enzyme: Casepase-3, mean of 3 replicates) was 1.104 and the “normalized Abs. at 700 nm (Fig. 2j)” value [1, 3] was 1.037. The “normalized Abs. at 750 nm (Fig. 2j)” value [1, 3] was 0.6059, the “normalized FL intensity at 710 nm (Fig. 2k)” value [1, 3] was 15.4414 and the “normalized PA intensity at 700 nm (Fig. 2l)” value [1, 3] was 0.9827. For the same compound, the “normalized PA intensity at 750 nm (Fig. 2l)” value [1, 3] was 0.8167, the “normalized Abs. at 700 nm (Fig. 2j)” value [1, 4] was 1.054 and the “normalized Abs. at 750 nm (Fig. 2j)” value [1, 4] was 0.4238. For the same compound, the “normalized FL intensity at 710 nm (Fig. 2k)” value [1, 4] was 19.7308, the “normalized PA intensity at 700 nm (Fig. 2l)” value [1, 4] was 0.9792 and the “normalized PA intensity at 750 nm (Fig. 2l)” value [1, 4] was 0.6967. The “normalized Abs. at 700 nm (Fig. 2j)” value [1, 5] was 1.062, the “normalized Abs. at 750 nm (Fig. 2j)” value [1, 5] was 0.3077 and the “normalized FL intensity at 710 nm (Fig. 2k)” value [1, 5] was 25.1768. The “normalized PA intensity at 700 nm (Fig. 2l)” value [1, 5] was 0.9821, the “normalized PA intensity at 750 nm (Fig. 2l)” value [1, 5] was 0.5167 and the “normalized Abs. at 700 nm (Fig. 2j)” value [1, 6] was 1.0719. For the same compound, the “normalized Abs. at 750 nm (Fig. 2j)” value [1, 6] was 0.2002, the “normalized FL intensity at 710 nm (Fig. 2k)” value [1, 6] was 29.4155 and the “normalized PA intensity at 700 nm (Fig. 2l)” value [1, 6] was 0.9744. The “normalized PA intensity at 750 nm (Fig. 2l)” value [1, 6] was 0.3617, the “normalized Abs. at 700 nm (Fig. 2j)” value [1, 7] was 1.0764 and the “normalized Abs. at 750 nm (Fig. 2j)” value [1, 7] was 0.1155. The “normalized FL intensity at 710 nm (Fig. 2k)” value [1, 7] was 34.4707, the “normalized PA intensity at 700 nm (Fig. 2l)” value [1, 7] was 0.9821 and the “normalized PA intensity at 750 nm (Fig. 2l)” value [1, 7] was 0.2567. The “normalized Abs. at 700 nm (Fig. 2j)” value [1, 8] was 1.084, the “normalized Abs. at 750 nm (Fig. 2j)” value [1, 8] was 0.09482 and the “normalized FL intensity at 710 nm (Fig. 2k)” value [1, 8] was 35.3761. The “normalized PA intensity at 700 nm (Fig. 2l)” value [1, 8] was 1.001 and the “normalized PA intensity at 750 nm (Fig. 2l)” value [1, 8] was 0.1807.
